Data from paper PMC6759604 (Frontiers in Microbiology, 2019).

Key:
[1] = molecular target: Vp HqsK (VP1876 HK; H-NOX-associated quorum sensing kinase) (Vibrio parahaemolyticus, UniProt Q87NJ2); conditions: 250 μM OMFP, pH 8.0, room temperature
[2] = molecular target: Vibrio parahaemolyticus HqsK (VP1876) D499A (Vibrio parahaemolyticus) (UniProt Q87NJ2)

Compound	phosphatase assay, O-methylfluorescein release at 450 nm [1]	inhibition of HqsK autophosphorylation ([gamma-32P]-ATP, SDS-PAGE, autoradiography) by Fe(II)-NO H-NOX; 69.4 uM H-NOX, 5.3 uM HqsK D499A, purified proteins, room temperature, anaerobic [2] [%]
COc1ccc2c(c1)Oc1cc(OP(=O)(O)O)ccc1C21OC(=O)c2ccccc21 (centres unmarked) [3-O-methyl fluorescein phosphate]	Wild-type HqsK displays increasing OMF fluorescence over time, indicating Vp HqsK has phosphatase activity	–
Vibrio parahaemolyticus H-NOX (VP1877) (from UniProt Q87NJ1 1-179) (natural protein)	–	75
